Source: ChEMBL document CHEMBL1201862, “PubChem BioAssay data set” (2004)
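Method: 48-hour compound exposure of cells in 96-well plates, five concentrations, linear interpolation of endpoints. GI50 is the concentration that inhibits growth by half.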 The source made the active and inactive calls. Cut-off read from the data, not from the text of the source: active = GI50 up to about 1.1 µM and inactive = higher.

How the values were obtained:
Experiment in all cases: growth of human tumour cells (NCI), 48 h
[1] = system: SW-620
[2] = system: SK-OV-3
[3] = system: M14
[4] = system: TK-10
[5] = system: EKVX
[6] = system: IGROV-1
[7] = system: RPMI-8226
[8] = system: KM12
[9] = system: SF-295
[10] = system: 786-0
[11] = system: HCT-15
[12] = system: DU-145
[13] = system: CAKI-1
[14] = system: SNB-75
[15] = system: SK-MEL-5
[16] = system: SK-MEL-2
[17] = system: RXF 393
[18] = system: UACC-257
[19] = system: MDA-MB-231
[20] = system: NCI-H226

COc1ccc2c(c1OC)C[C@@H]1c3c(cc4c(c3-2)OCO4)CCN1C
GI50 [1]: 29.8 µM (inactive)
GI50 [2]: 23.3 µM (inactive)
GI50 [3]: 25.9 µM (inactive)
GI50 [4]: 25 µM (inactive)
GI50 [5]: 20.7 µM (inactive)
GI50 [6]: 25.4 µM (inactive)
GI50 [7]: 18.5 µM (inactive)
GI50 [8]: 28.8 µM (inactive)
GI50 [9]: 15.6 µM (inactive)
GI50 [10]: 24.2 µM (inactive)
GI50 [11]: 22.6 µM
GI50 [12]: 41.1 µM (inactive)
GI50 [13]: 31.2 µM (inactive)
GI50 [14]: 17.1 µM (inactive)
GI50 [15]: 16.7 µM (inactive)
GI50 [16]: 28.2 µM (inactive)
GI50 [17]: 20.5 µM (inactive)
GI50 [18]: 20 µM (inactive)
GI50 [19]: 33.7 µM (inactive)
GI50 [20]: 18.1 µM (inactive)

c1ccc2c(c1)N=c1ccccc1=P21c2ccccc2Nc2ccccc21
GI50 [1]: 0.405 µM (active)
GI50 [2]: 0.265 µM (active)
GI50 [3]: 0.518 µM (active)
GI50 [4]: 0.998 µM (active)
GI50 [5]: 5.04 µM (inactive)
GI50 [6]: 0.352 µM (active)
GI50 [7]: 0.156 µM (active)
GI50 [8]: 0.132 µM (active)
GI50 [9]: 0.942 µM (active)
GI50 [10]: 1.03 µM (active)
GI50 [11]: 17.2 µM
GI50 [12]: 0.388 µM (active)
GI50 [13]: 2.4 µM (inactive)
GI50 [14]: 0.246 µM (active)
GI50 [15]: 0.188 µM (active)
GI50 [16]: 0.256 µM (active)
GI50 [17]: 0.438 µM (active)
GI50 [18]: 0.39 µM (active)
GI50 [19]: 2.69 µM (inactive)
GI50 [20]: 0.577 µM (active)

NC(=O)C(Nc1ccc(Cl)cc1)c1cc2cc(Br)ccc2nc1Cl (stereo not given)
GI50 [1]: 34.8 µM (inactive)
GI50 [2]: > 50 µM (inactive)
GI50 [3]: > 50 µM (inactive)
GI50 [4]: 19.9 µM (inactive)
GI50 [5]: 18.6 µM (inactive)
GI50 [6]: 17.6 µM (inactive)
GI50 [7]: 27.8 µM (inactive)
GI50 [8]: > 50 µM (inactive)
GI50 [9]: > 50 µM (inactive)
GI50 [10]: > 50 µM (inactive)
GI50 [11]: > 50 µM
GI50 [12]: > 50 µM (inactive)
GI50 [13]: > 50 µM (inactive)
GI50 [14]: > 50 µM (inactive)
GI50 [15]: 42.2 µM (inactive)
GI50 [16]: > 50 µM (inactive)
GI50 [17]: 41.1 µM (inactive)
GI50 [18]: > 50 µM (inactive)
GI50 [19]: > 50 µM (inactive)
GI50 [20]: > 50 µM (inactive)

C=CC[C@]12C=C(OC)[C@@H](O)[C@](OC)(C(c3cc(OC)c4c(c3)OCO4)[C@H]1C)[C@H]2OC(C)=O (stereo not given in full)
GI50 [1]: > 100 µM (inactive)
GI50 [2]: 61.1 µM (inactive)
GI50 [3]: > 100 µM (inactive)
GI50 [4]: > 100 µM (inactive)
GI50 [5]: > 100 µM (inactive)
GI50 [6]: > 100 µM (inactive)
GI50 [7]: > 100 µM (inactive)
GI50 [8]: > 100 µM (inactive)
GI50 [9]: > 100 µM (inactive)
GI50 [10]: > 100 µM (inactive)
GI50 [11]: > 100 µM
GI50 [12]: > 100 µM (inactive)
GI50 [13]: > 100 µM (inactive)
GI50 [14]: 40.7 µM (inactive)
GI50 [15]: > 100 µM (inactive)
GI50 [16]: > 100 µM (inactive)
GI50 [17]: > 100 µM (inactive)
GI50 [18]: > 100 µM (inactive)
GI50 [19]: > 100 µM (inactive)
GI50 [20]: > 100 µM (inactive)

CCN(CC)c1ccc(NC(=S)NN(C)C)cc1
GI50 [1]: > 10 µM (inactive)
GI50 [2]: > 10 µM (inactive)
GI50 [3]: > 10 µM (inactive)
GI50 [4]: > 10 µM (inactive)
GI50 [5]: > 10 µM (inactive)
GI50 [6]: > 10 µM (inactive)
GI50 [7]: > 10 µM (inactive)
GI50 [8]: > 10 µM (inactive)
GI50 [9]: > 10 µM (inactive)
GI50 [10]: > 10 µM (inactive)
GI50 [11]: > 10 µM
GI50 [12]: > 10 µM (inactive)
GI50 [13]: > 10 µM (inactive)
GI50 [14]: > 10 µM (inactive)
GI50 [15]: > 10 µM (inactive)
GI50 [16]: > 10 µM (inactive)
GI50 [17]: > 10 µM (inactive)
GI50 [18]: > 10 µM (inactive)
GI50 [19]: > 10 µM (inactive)
GI50 [20]: > 10 µM (inactive)

N#Cc1c(-c2ccc([N+](=O)[O-])cc2)cc(-c2ccc(Nc3ccnc4cc(Cl)ccc34)cc2)nc1N
GI50 [1]: > 21.7 µM (inactive)
GI50 [2]: 32 µM (inactive)
GI50 [3]: 21.1 µM (inactive)
GI50 [4]: 25.9 µM (inactive)
GI50 [5]: 16.9 µM (inactive)
GI50 [6]: 3.22 µM (inactive)
GI50 [7]: 5.02 µM (inactive)
GI50 [8]: 2.38 µM (inactive)
GI50 [9]: 19 µM (inactive)
GI50 [10]: 0.989 µM (active)
GI50 [11]: 2.76 µM
GI50 [12]: 11 µM (inactive)
GI50 [13]: 20.9 µM (inactive)
GI50 [14]: 11.4 µM (inactive)
GI50 [15]: 25.9 µM (inactive)
GI50 [16]: 14.7 µM (inactive)
GI50 [17]: 17.4 µM (inactive)
GI50 [18]: 26.5 µM (inactive)
GI50 [19]: 16.9 µM (inactive)
GI50 [20]: > 72.1 µM (inactive)

CC(=O)[C@@H](C)C(=O)N1C(=O)OC[C@@]12[C@@H]1CC[C@@H](C1)C2(C)C
GI50 [1]: > 100 µM (inactive)
GI50 [2]: > 100 µM (inactive)
GI50 [3]: > 100 µM (inactive)
GI50 [4]: > 100 µM (inactive)
GI50 [5]: > 100 µM (inactive)
GI50 [6]: > 100 µM (inactive)
GI50 [7]: > 100 µM (inactive)
GI50 [8]: > 100 µM (inactive)
GI50 [9]: > 100 µM (inactive)
GI50 [10]: > 100 µM (inactive)
GI50 [11]: > 100 µM
GI50 [12]: > 100 µM (inactive)
GI50 [13]: 71.8 µM (inactive)
GI50 [14]: > 100 µM (inactive)
GI50 [15]: > 100 µM (inactive)
GI50 [16]: > 100 µM (inactive)
GI50 [17]: > 100 µM (inactive)
GI50 [18]: > 100 µM (inactive)
GI50 [19]: > 100 µM (inactive)
GI50 [20]: > 100 µM (inactive)

O=C(O)[C@@H]1C[C@@H](O)CN1
GI50 [1]: > 100 µM (inactive)
GI50 [2]: > 100 µM (inactive)
GI50 [3]: > 100 µM (inactive)
GI50 [4]: > 100 µM (inactive)
GI50 [5]: > 100 µM (inactive)
GI50 [6]: > 100 µM (inactive)
GI50 [7]: > 100 µM (inactive)
GI50 [8]: > 100 µM (inactive)
GI50 [9]: > 100 µM (inactive)
GI50 [10]: > 100 µM (inactive)
GI50 [11]: > 100 µM
GI50 [12]: > 100 µM (inactive)
GI50 [13]: > 100 µM (inactive)
GI50 [14]: > 100 µM (inactive)
GI50 [15]: > 100 µM (inactive)
GI50 [16]: > 100 µM (inactive)
GI50 [17]: > 100 µM (inactive)
GI50 [18]: > 100 µM (inactive)
GI50 [19]: > 100 µM (inactive)
GI50 [20]: > 100 µM (inactive)

Cc1ccccc1NC(=N)Nc1ccccc1C
GI50 [1]: > 100 µM (inactive)
GI50 [2]: > 100 µM (inactive)
GI50 [3]: 66.8 µM (inactive)
GI50 [4]: > 100 µM (inactive)
GI50 [5]: > 100 µM (inactive)
GI50 [6]: > 100 µM (inactive)
GI50 [7]: > 100 µM (inactive)
GI50 [8]: > 100 µM (inactive)
GI50 [9]: > 100 µM (inactive)
GI50 [10]: > 100 µM (inactive)
GI50 [11]: > 100 µM
GI50 [12]: > 100 µM (inactive)
GI50 [13]: > 100 µM (inactive)
GI50 [14]: 54.6 µM (inactive)
GI50 [15]: > 100 µM (inactive)
GI50 [16]: > 100 µM (inactive)
GI50 [17]: > 100 µM (inactive)
GI50 [18]: > 100 µM (inactive)
GI50 [19]: > 100 µM (inactive)
GI50 [20]: > 100 µM (inactive)

CS(=O)(=O)c1nc(-c2cc3c(c(S(C)(=O)=O)n2)CCCC3)cc2c1CCCC2
GI50 [1]: > 100 µM (inactive)
GI50 [2]: > 35.1 µM (inactive)
GI50 [3]: > 100 µM (inactive)
GI50 [4]: > 64.6 µM (inactive)
GI50 [5]: > 70.1 µM (inactive)
GI50 [6]: > 21.8 µM (inactive)
GI50 [7]: > 100 µM (inactive)
GI50 [8]: > 100 µM (inactive)
GI50 [9]: 33.6 µM (inactive)
GI50 [10]: 41 µM (inactive)
GI50 [11]: > 100 µM
GI50 [12]: > 100 µM (inactive)
GI50 [13]: > 39.9 µM (inactive)
GI50 [14]: 6.75 µM (inactive)
GI50 [15]: > 100 µM (inactive)
GI50 [16]: > 54.3 µM (inactive)
GI50 [17]: 26.1 µM (inactive)
GI50 [18]: > 100 µM (inactive)
GI50 [19]: 56.5 µM (inactive)
GI50 [20]: > 100 µM (inactive)
